Experimental data: patent publication US10000471B2, “Pyrazole P38 map kinase inhibitors” (Respivert Limited, priority 2010, dated 2018)

Experiments:
A/J mice = assay: Cigarette smoke model; format: in vivo; details: for inhibition of both macrophage and neutrophil accumulation into the BALF: animals previously exposed to cigarette smoke; for Cell numbers in BAL (% Inhibition), Macrophages / Cell numbers in BAL (% Inhibition), Neutrophils / Cell numbers in BAL, Macrophages / Cell numbers in BAL, Neutrophils: Table 8
Procedure: A/J mice (males, 5 weeks old) were exposed to cigarette smoke (4% cigarette smoke, diluted with air) for 30 min/day for 11 days using a Tobacco Smoke Inhalation Experiment System for small animals (Model SIS-CS; Sibata Scientific Technology, Tokyo, Japan). Test substances were administered intra-nasally (35 μL of solution in 50% DMSO/PBS) twice daily for 3 days after the final cigarette smoke exposure. At 12 hr after the last dosing, each of the animals was anesthetized, the trachea cannulated and bronchoalveolar lavage fluid (BALF) was collected. The numbers of alveolar macrophages and neutrophils were determined by FACS analysis (EPICS® ALTRA II, Beckman Coulter, Inc., Fullerton, Calif., USA) using anti-mouse MOMA2 antibody (macrophage) or anti-mouse 7/4 antibody (neutrophil).
The data for cell numbers are shown as the mean±SEM.

[1] = test system: IL-8 release in d-U937 cells; assay: LPS-induced IL-8 release in d-U937 cells; format: cell-based, human; details: Homo sapiens, dU937
Outline: (§1)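 PMA-differentiated (100 ng/ml, 48–72 hr) U937 macrophage-type cells pre-incubated 2 hr with compound, then stimulated 4 hr with 0.1 μg/mL E. coli O111:B4 LPS; supernatant TNFα and IL-8 measured by sandwich ELISA. TNFα inhibition expressed relative to 10 μg/mL BIRB796, giving REC50; IL-8 inhibition versus vehicle, giving IC50.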

[2] = test system: TNFα release in d-U937 cells; assay: LPS-induced TNFα release in d-U937 cells; format: cell-based, human; details: Homo sapiens, dU937, relative to 10 μg/mL BIRB796, read-out: LPS/TNFα REC50 d-U937
Outline: as §1

p38 MAPKγ (MAPK12) = target: T1, p38 MAPKγ (MAPK12) (Homo sapiens, UniProt P53778); assay: Enzyme inhibition assay (FRET, Z-LYTE), p38 MAPKγ; format: biochemical; details: read-out: Enzyme Inhibition IC50 p38γ
T1 construct: purchased Invitrogen
T1 sequence (P53778 1-367): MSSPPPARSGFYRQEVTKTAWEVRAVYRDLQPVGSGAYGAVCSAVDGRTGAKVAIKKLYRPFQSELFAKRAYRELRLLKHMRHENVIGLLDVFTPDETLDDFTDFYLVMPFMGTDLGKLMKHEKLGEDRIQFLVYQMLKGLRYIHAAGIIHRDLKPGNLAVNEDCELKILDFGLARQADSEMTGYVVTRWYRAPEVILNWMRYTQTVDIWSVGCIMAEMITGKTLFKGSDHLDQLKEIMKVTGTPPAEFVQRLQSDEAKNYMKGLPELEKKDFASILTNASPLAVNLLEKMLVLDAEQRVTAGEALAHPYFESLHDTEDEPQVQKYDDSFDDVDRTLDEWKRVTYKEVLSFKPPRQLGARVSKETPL
Outline: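 Recombinant phosphorylated p38 MAPKγ preincubated 2 h at RT with compound in HEPES buffer, then 2 μM FRET peptide and 100 μM ATP added for 1 h; protease development 1 h. Coumarin/fluorescein emission ratio gave phosphorylation; IC50 from concentration-response versus uninhibited control.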

[3] = Cigarette smoke + 0.064 μg/mL, intra-nasal twice daily 3 days
[4] = Table 7, Cigarette smoke + 8.0 μg/mL
[5] = Table 7, Cigarette smoke + 40 μg/mL
[6] = Table 7, Cigarette smoke + 200 μg/mL

CNC(=O)Nc1cc(Oc2ccc(NC(=O)Nc3cc(C(C)(C)C)nn3-c3ccc(OC)cc3)c(Cl)c2Cl)ccn1 [Example 9, N-Methyl-N′-4-(4-(3-(3-tert-butyl-1-p-anisyl-1H-pyrazol-5-yl)ureido)-2,3-dichlorophen-1-yloxy)pyridin-2-ylurea]
Cell numbers in BAL (% Inhibition), Macrophage (A/J mice; [3]): 19% | Cell numbers in BAL (% Inhibition), Neutrophil (A/J mice; [3]): 3% | Cell numbers in BAL, Macrophage (A/J mice; [3]): 16.2 ± 1.7 × 10^4/mL | Cell numbers in BAL, Neutrophil (A/J mice; [3]): 17.7 ± 2.5 × 10^4/mL | Cell numbers in BAL (% Inhibition), Macrophage (A/J mice; Cigarette smoke + 0.32 μg/mL): 17% | Cell numbers in BAL (% Inhibition), Neutrophil (A/J mice; Cigarette smoke + 0.32 μg/mL): 16% | Cell numbers in BAL, Macrophage (A/J mice; Cigarette smoke + 0.32 μg/mL): 16.5 ± 2.4 × 10^4/mL | Cell numbers in BAL, Neutrophil (A/J mice; Cigarette smoke + 0.32 μg/mL): 15.5 ± 0.47 × 10^4/mL | Cell numbers in BAL (% Inhibition), Macrophage (A/J mice; Cigarette smoke + 1.6 μg/mL): 19% | Cell numbers in BAL (% Inhibition), Neutrophil (A/J mice; Cigarette smoke + 1.6 μg/mL): 21% | Cell numbers in BAL, Macrophage (A/J mice; Cigarette smoke + 1.6 μg/mL): 16.2 ± 1.3 × 10^4/mL | Cell numbers in BAL, Neutrophil (A/J mice; Cigarette smoke + 1.6 μg/mL): 14.7 ± 1.6 × 10^4/mL | Cell numbers in BAL (% Inhibition), Macrophage (A/J mice; [4]): 39% | Cell numbers in BAL (% Inhibition), Neutrophil (A/J mice; [4]): 29% | Cell numbers in BAL, Macrophage (A/J mice; [4]): 13.1 ± 1.2 × 10^4/mL | Cell numbers in BAL, Neutrophil (A/J mice; [4]): 13.4 ± 1.4 × 10^4/mL | Cell numbers in BAL (% Inhibition), Macrophage (A/J mice; [5]): 61% | Cell numbers in BAL (% Inhibition), Neutrophil (A/J mice; [5]): 42% | Cell numbers in BAL, Macrophage (A/J mice; [5]): 9.9 ± 1.6 × 10^4/mL | Cell numbers in BAL, Neutrophil (A/J mice; [5]): 11.2 ± 2.1 × 10^4/mL | Cell numbers in BAL (% Inhibition), Macrophage (A/J mice; [6]): 85% | Cell numbers in BAL (% Inhibition), Neutrophil (A/J mice; [6]): 72% | Cell numbers in BAL, Macrophage (A/J mice; [6]): 6.1 ± 0.93 × 10^4/mL | Cell numbers in BAL, Neutrophil (A/J mice; [6]): 6.3 ± 0.79 × 10^4/mL | inhibition of both macrophage and neutrophil accumulation into the BALF (A/J mice): dose-dependent inhibition | IC50 [1]: 0.8 nM | EC50 [2]: 0.2 nM | IC50 (p38 MAPKγ (MAPK12)): 67.2 nM

COc1ccc(-n2nc(C(C)(C)C)cc2NC(=O)Nc2ccc(Oc3ccnc(NC(=O)N4CCCC4)c3)c(Cl)c2Cl)cc1 [Example 76, N-(4-(4-(3-(3-(tert-butyl)-1-(4-methoxyphenyl)-1H-pyrazol-5-yl)ureido)-2,3-dichlorophenoxy)pyridin-2-yl)pyrrolidine-1-carboxamide]
Cell numbers in BAL (% Inhibition), Macrophages (A/J mice; Cigarette smoke + 8.0 μg/mL): 57% | Cell numbers in BAL (% Inhibition), Neutrophils (A/J mice; Cigarette smoke + 8.0 μg/mL): 52% | Cell numbers in BAL, Macrophages (A/J mice; Cigarette smoke + 8.0 μg/mL): 8.5 ± 0.35 × 10^4/mL | Cell numbers in BAL, Neutrophils (A/J mice; Cigarette smoke + 8.0 μg/mL): 9.6 ± 0.48 × 10^4/mL | Cell numbers in BAL (% Inhibition), Macrophages (A/J mice; Cigarette smoke + 40 μg/mL): 84% | Cell numbers in BAL (% Inhibition), Neutrophils (A/J mice; Cigarette smoke + 40 μg/mL): 66% | Cell numbers in BAL, Macrophages (A/J mice; Cigarette smoke + 40 μg/mL): 5.3 ± 0.36 × 10^4/mL | Cell numbers in BAL, Neutrophils (A/J mice; Cigarette smoke + 40 μg/mL): 7.4 ± 0.76 × 10^4/mL | Cell numbers in BAL (% Inhibition), Macrophages (A/J mice; Cigarette smoke + 200 μg/mL): 97% | Cell numbers in BAL (% Inhibition), Neutrophils (A/J mice; Cigarette smoke + 200 μg/mL): 86% | Cell numbers in BAL, Macrophages (A/J mice; Cigarette smoke + 200 μg/mL): 3.6 ± 0.39 × 10^4/mL | Cell numbers in BAL, Neutrophils (A/J mice; Cigarette smoke + 200 μg/mL): 4.0 ± 0.49 × 10^4/mL | inhibition of both macrophage and neutrophil accumulation into the BALF (A/J mice): dose-dependent inhibition | IC50 [1]: 0.8 nM | EC50 [2]: 0.9 nM | IC50 (p38 MAPKγ (MAPK12)): 134 nM
